In ChEMBL document CHEMBL1201862, “PubChem BioAssay data set” (2004) one finds IC50 data, which are given here for two compounds.

The structures appear in SMILES notation. Active and inactive are the calls of the source. Rule as the data show it: actives have a measured IC50 and inactives only a lower limit.

In this assay the target is Envelope glycoprotein gp160 (Human immunodeficiency virus 1, UniProt Q6QLK5). The assay is described as follows: inhibitors of HIV fusion peptide binding, primary screen, biochemical, uHTS, fluorescence dequenching (AID 1986).
Envelope glycoprotein gp160, sequence (Q6QLK5 whole entry, the tested form may be a part): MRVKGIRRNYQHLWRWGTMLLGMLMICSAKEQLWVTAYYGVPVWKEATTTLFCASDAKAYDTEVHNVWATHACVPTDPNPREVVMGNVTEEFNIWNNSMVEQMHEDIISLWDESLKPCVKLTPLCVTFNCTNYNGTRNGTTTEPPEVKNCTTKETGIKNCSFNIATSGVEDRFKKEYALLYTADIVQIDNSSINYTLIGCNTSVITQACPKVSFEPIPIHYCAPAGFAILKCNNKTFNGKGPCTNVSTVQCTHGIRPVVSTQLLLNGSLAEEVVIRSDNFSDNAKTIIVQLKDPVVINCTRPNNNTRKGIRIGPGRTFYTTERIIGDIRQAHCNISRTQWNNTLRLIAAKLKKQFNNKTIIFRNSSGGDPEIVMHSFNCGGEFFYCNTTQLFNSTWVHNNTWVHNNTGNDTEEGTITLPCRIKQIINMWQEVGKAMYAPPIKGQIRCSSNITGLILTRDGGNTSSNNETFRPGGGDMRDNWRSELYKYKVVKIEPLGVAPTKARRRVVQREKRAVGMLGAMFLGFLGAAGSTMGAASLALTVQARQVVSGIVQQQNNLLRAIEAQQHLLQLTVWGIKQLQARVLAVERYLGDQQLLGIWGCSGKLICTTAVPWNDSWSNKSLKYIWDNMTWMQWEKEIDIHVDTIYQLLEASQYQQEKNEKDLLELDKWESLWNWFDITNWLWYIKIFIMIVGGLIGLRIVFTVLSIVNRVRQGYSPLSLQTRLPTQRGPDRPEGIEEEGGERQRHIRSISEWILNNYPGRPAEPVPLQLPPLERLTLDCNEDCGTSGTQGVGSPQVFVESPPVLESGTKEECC

Usually IC50 stands for the concentration needed to halve the response being measured. In the case of `CCOC(=O)C1=C(C)N=c2s/c(=C/c3ccc(OCC(=O)O)cc3)c(=O)n2C1c1ccc(SC)cc1` (configuration not stated), the 50% inhibitory concentration (IC50) is 12.7 µM (active).
The figure for `C=CCOC(=O)C1=C(C)N=c2s/c(=C3\C(=O)N(CC(=O)O)c4ccccc43)c(=O)n2C1c1ccc(OC)cc1` (configuration not stated) is 18 µM (active).
